Test results published in patent publication US10517889B2, “Modulators of SMAD7 expression” (Ionis Pharmaceuticals, Inc., priority 2017, dated 2019).
Strand notation (5' to 3'): a small letter for the sugar, then the base; units joined by * are phosphorothioate-linked, units joined directly phosphodiester-linked; [ ] holds rarer units or linkages, { } end groups; capitals alone tell only the bases. e = 2'-O-(2-methoxyethyl) (MOE); [5mC] = 5-methylcytosine; d = 2'-deoxy (DNA)

test system: human SMAD7 mRNA; test: Antisense inhibition of human SMAD7 mRNA expression in Hep3B cells by 5-10-5 MOE gapmers, single concentration, electroporation, RT-PCR (Example 1, Study 1 and 2); type: cell-based; details: Study 2, electroporation with 15,000 nM antisense oligonucleotide, 5-10-5 MOE gapmers targeting SEQ ID NO: 1 and 2
Protocol: Antisense oligonucleotides were designed to target human SMAD7 mRNA and were tested for their effects on SMAD7 mRNA expression in vitro. Cultured Hep3B cells at a density of 20,000 cells per well were transfected using electroporation with antisense oligonucleotide ION 483663 (a 5-10-5 MOE gapmer), the sequence of which overlaps with ION 28453 (a 4-10-4 MOE gapmer) was included in these assays for comparison. ION 28453 has been previously disclosed in U.S. Pat. No. 6,159,697). After a treatment period of approximately 24 hours, RNA was isolated from the cells and SMAD7 mRNA levels were measured by quantitative real-time PCR. Primer probe set RTS5062 (forward sequence […], designated herein as SEQ ID NO: 11; reverse sequence […], designated herein as SEQ ID NO: 12; probe sequence […], designated herein as SEQ ID NO: 13) was used to measure human SMAD7 mRNA levels. SMAD7 mRNA levels were adjusted according to total RNA content, as measured by RIBOGREEN®. Results are presented as percent inhibition of SMAD7 mRNA expression, relative to untreated control cells.
The newly designed chimeric antisense oligonucleotides in the Tables below were designed as 5-10-5 MOE gapmers. The gapmers are 20 nucleosides in length, wherein the central gap segment comprises of ten 2′-deoxynucleosides and is flanked by wing segments on the 5′ direction and the 3′ direction comprising five nucleosides each. Each nucleoside in the 5′ wing segment and each nucleoside in the 3′ wing segment has a 2′-MOE modification. The internucleoside linkages throughout each gapmer are phosphorothioate (P═S) linkages. All cytosine residues throughout each gapmer are 5-methylcytosines.
“Start site” indicates the 5′-most nucleoside to which the gapmer is targeted in the human gene sequence. “Stop site” indicates the 3′-most nucleoside to which the gapmer is targeted human gene sequence.
Cultured Hep3B cells at a density of 20,000 cells per well were transfected using electroporation with 5,000 nM antisense oligonucleotide.
Cultured Hep3B cells at a density of 20,000 cells per well were transfected using electroporation with 15,000 nM antisense oligonucleotide. The antisense oligonucleotides were tested in a series of experiments that had similar culture conditions as described below.
Some of the oligonucleotides presented were complementary to SMAD7 mRNA sequences RefSeqNo. NM_001190821.1 (designated herein as SEQ ID NO: 3) or RefSeqNo. NM_001190822.1 (designated herein as SEQ ID NO: 4), and are presented in a separate table shown below.

Substance	% Inhibition [%]	% inhibition of SMAD7 mRNA expression [%]
771908 (antisense e[5mC]*eA*eA*eA*e[5mC]*dA*dT*d[5mC]*dA*d[5mC]*d[5mC]*dA*d[5mC]*dG*d[5mC]*e[5mC]*eT*e[5mC]*eG*e[5mC]) [compound 771908]	26	
771378 (antisense eA*eT*e[5mC]*eT*eT*dT*dA*dA*dG*d[5mC]*dA*d[5mC]*dG*d[5mC]*dT*e[5mC]*eT*eA*eA*eA) [compound 771378]	22	
771812 (antisense eT*eT*eA*eA*e[5mC]*d[5mC]*d[5mC]*d[5mC]*dT*dG*d[5mC]*d[5mC]*dG*dG*dA*e[5mC]*eT*eG*e[5mC]*e[5mC]) [compound 771812]	26	
771598 (antisense eG*eA*eA*eG*eG*dG*dA*dA*dT*dA*dA*dG*dA*d[5mC]*dA*eA*eG*eG*eA*eT) [compound 771598]		34
771748 (antisense eA*e[5mC]*e[5mC]*e[5mC]*e[5mC]*d[5mC]*dA*d[5mC]*dA*dT*dT*dA*dA*dA*d[5mC]*eA*eT*eA*eA*eT) [compound 771748]	0	
771567 (antisense eG*eG*eG*eA*e[5mC]*dA*dT*d[5mC]*d[5mC]*dA*dT*dA*dA*dG*dA*eG*eA*e[5mC]*eA*e[5mC]) [compound 771567]		39
771878 (antisense e[5mC]*eA*eG*eT*eT*dT*d[5mC]*dT*dA*dG*dA*dG*dG*dG*dT*eA*eG*eG*eA*eA) [compound 771878]	22	
771350 (antisense eT*eT*eT*eG*e[5mC]*d[5mC]*d[5mC]*d[5mC]*dA*dA*dA*dA*d[5mC]*dT*d[5mC]*e[5mC]*eA*eA*eA*eG) [compound 771350]	28	
771606 (antisense eG*eG*eG*e[5mC]*eT*dG*d[5mC]*d[5mC]*d[5mC]*d[5mC]*dG*dG*d[5mC]*dA*dG*e[5mC]*e[5mC]*e[5mC]*eT*eT) [compound 771606]		0
771391 (antisense eT*e[5mC]*e[5mC]*eG*eG*d[5mC]*dT*dG*d[5mC]*d[5mC]*d[5mC]*d[5mC]*dA*d[5mC]*d[5mC]*e[5mC]*e[5mC]*eG*e[5mC]*eG) [compound 771391]	16	
771775 (antisense eA*eA*eT*eG*e[5mC]*d[5mC]*dA*dA*dA*dT*dG*d[5mC]*d[5mC]*d[5mC]*dA*eA*eA*eA*e[5mC]*eT) [compound 771775]	41	
771687 (antisense e[5mC]*eT*eT*eG*eT*dG*dT*dT*dT*dA*dT*d[5mC]*dT*dT*dT*eT*eT*eT*eA*eA) [compound 771687]		13
771351 (antisense e[5mC]*eT*e[5mC]*eT*e[5mC]*dT*dT*dT*dG*d[5mC]*d[5mC]*d[5mC]*d[5mC]*dA*dA*eA*eA*e[5mC]*eT*e[5mC]) [compound 771351]	11	
771703 (antisense eG*eG*eA*eG*eG*dG*dT*dA*dT*dG*d[5mC]*dA*d[5mC]*dA*d[5mC]*eT*e[5mC]*eT*e[5mC]*e[5mC]) [compound 771703]	31	
771429 (eA*e[5mC]*e[5mC]*eT*eT*dT*dG*dG*d[5mC]*dA*d[5mC]*d[5mC]*dT*d[5mC]*dG*e[5mC]*eA*e[5mC]*e[5mC]*eG; antisense) [compound 771429]	11	
771892 (antisense e[5mC]*eT*eG*eA*eA*dG*dT*dT*dT*d[5mC]*dT*d[5mC]*d[5mC]*dT*d[5mC]*e[5mC]*e[5mC]*eA*eT*e[5mC]) [compound 771892]	2	
771655 (antisense eA*eG*eT*e[5mC]*eT*dA*dA*dA*d[5mC]*dA*dT*dG*d[5mC]*dT*d[5mC]*eA*eT*eT*eG*eA) [compound 771655]		14
771948 (antisense e[5mC]*eA*e[5mC]*e[5mC]*e[5mC]*dA*dG*d[5mC]*dT*d[5mC]*dT*d[5mC]*dA*dA*dA*eT*e[5mC]*eA*eG*eT) [compound 771948]	0	
771751 (antisense eT*eG*eG*e[5mC]*e[5mC]*dA*dT*dG*d[5mC]*dT*dG*dG*d[5mC]*dA*dA*eA*eT*eA*eG*eG) [compound 771751]	25	

same assay, conditions: electroporation with 15,000 nM antisense oligonucleotide (Study 2), 5-10-5 MOE gapmers targeting SEQ ID NO: 1 and 2

Substance	% Inhibition of SMAD7 mRNA [%]	% inhibition of SMAD7 mRNA expression [%]
771616 (antisense eT*eG*e[5mC]*eT*eG*dA*dG*d[5mC]*dT*dG*dG*dT*dT*dT*dT*e[5mC]*eT*eA*eA*eG) [compound 771616]	33	0
771512 (antisense eA*eG*eT*eA*eG*dT*dT*dT*dG*dA*dA*dG*dT*dG*dT*eG*eG*e[5mC]*e[5mC]*eT) [compound 771512]	34	
771656 (antisense eG*eT*eT*eA*eA*dA*dG*dT*d[5mC]*dT*dA*dA*dA*d[5mC]*dA*eT*eG*e[5mC]*eT*e[5mC]) [compound 771656]	35	0
771618 (antisense e[5mC]*eA*eG*eG*eA*dT*dG*dG*dG*dA*dG*d[5mC]*dA*dG*dG*e[5mC]*eA*eG*eT*eG) [compound 771618]		30
771608 (antisense e[5mC]*eT*eG*eG*eG*dT*dG*dA*dG*d[5mC]*dA*dA*dT*dA*d[5mC]*eT*eG*eT*eG*eA) [compound 771608]	45	34
771648 (antisense e[5mC]*eA*eT*eA*e[5mC]*dG*dA*dG*dT*dG*dT*dA*dT*dG*dA*eG*eT*eT*eG*eT) [compound 771648]	17	0

same assay, conditions: electroporation, 5,000 nM, approximately 24 hours, relative to untreated control cells, gapmers targeting SEQ ID NO: 1 and 2

Substance	% inhibition of SMAD7 mRNA expression [%]
771350 (antisense eT*eT*eT*eG*e[5mC]*d[5mC]*d[5mC]*d[5mC]*dA*dA*dA*dA*d[5mC]*dT*d[5mC]*e[5mC]*eA*eA*eA*eG) [compound 771350]	68

same assay, conditions: electroporation, 15,000 nM antisense oligonucleotide (Study 2), 5-10-5 MOE gapmers targeting SEQ ID NO: 1 and 2

Substance	% inhibition of SMAD7 mRNA expression [%]
771738 (antisense eG*eA*eG*e[5mC]*eT*dT*d[5mC]*d[5mC]*dT*dA*dA*dG*dT*dA*d[5mC]*eT*eG*eT*eT*eA) [compound 771738]	14
771929 (antisense e[5mC]*eT*eT*eT*e[5mC]*d[5mC]*dA*dG*d[5mC]*dA*dA*dA*dA*d[5mC]*d[5mC]*eA*eT*eT*e[5mC]*eG) [compound 771929]	0
771512 (antisense eA*eG*eT*eA*eG*dT*dT*dT*dG*dA*dA*dG*dT*dG*dT*eG*eG*e[5mC]*e[5mC]*eT) [compound 771512]	0
771930 (antisense e[5mC]*e[5mC]*eA*eG*e[5mC]*d[5mC]*d[5mC]*dA*dG*dA*dA*dA*dA*dA*d[5mC]*eT*eG*e[5mC]*eA*eA) [compound 771930]	26
771443 (eG*e[5mC]*e[5mC]*eT*e[5mC]*dT*dT*dG*dA*d[5mC]*dT*dT*d[5mC]*d[5mC]*dG*eA*eG*eG*eA*eA; antisense) [compound 771443]	30
771730 (antisense eA*eA*eT*eG*e[5mC]*d[5mC]*d[5mC]*d[5mC]*d[5mC]*dG*dG*d[5mC]*d[5mC]*dA*d[5mC]*eA*eG*e[5mC]*eA*eG) [compound 771730]	27
771722 (antisense eA*eG*eA*eG*eG*dG*dA*dG*d[5mC]*dT*d[5mC]*d[5mC]*dA*dG*dG*eA*eA*eT*eT*eT) [compound 771722]	10
771754 (antisense e[5mC]*e[5mC]*e[5mC]*eT*e[5mC]*dA*dG*dG*dT*dA*d[5mC]*dT*d[5mC]*dT*dG*e[5mC]*eA*e[5mC]*eA*eG) [compound 771754]	45

same assay, conditions: electroporation, 15,000 nM, approximately 24 hours, gapmers targeting SEQ ID NO: 3 and 4

Substance	% inhibition of SMAD7 mRNA expression [%]
771356 (antisense eT*e[5mC]*e[5mC]*eA*eG*dT*dT*d[5mC]*dG*dG*d[5mC]*d[5mC]*dT*dT*d[5mC]*e[5mC]*eA*eT*e[5mC]*e[5mC]) [compound 771356]	40

same assay, conditions: electroporation, 15,000 nM, approximately 24 hours, relative to untreated control cells, gapmers targeting SEQ ID NO: 1 and 2

Substance	% inhibition of SMAD7 mRNA expression [%]
771502 (antisense e[5mC]*eG*e[5mC]*eT*e[5mC]*dT*dG*dT*d[5mC]*d[5mC]*d[5mC]*d[5mC]*dT*d[5mC]*d[5mC]*eG*e[5mC]*eA*e[5mC]*eG) [compound 771502]	48
771406 (antisense eG*eA*eG*e[5mC]*eG*dA*dA*d[5mC]*dA*dT*dG*dA*d[5mC]*d[5mC]*dT*e[5mC]*e[5mC]*eG*e[5mC]*eA) [compound 771406]	55
771565 (antisense e[5mC]*eT*eG*e[5mC]*e[5mC]*dG*d[5mC]*dT*d[5mC]*d[5mC]*dT*dG*d[5mC]*dA*d[5mC]*eA*e[5mC]*eG*e[5mC]*eG) [compound 771565]	55
